Test results: PubChem BioAssay (NCI)
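How tested: cells in 96-well plates exposed to compound for 48 hours at five concentrations. TGI marks complete inhibition of growth.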

Columns and labels:
Experiment in all cases: growth of human tumour cells (NCI), 48 h
SK-OV-3 ovarian = system: SK-OV-3 ovarian
SNB-75 CNS = system: SNB-75 CNS
786-0 renal = system: 786-0 renal
SK-MEL-5 melanoma = system: SK-MEL-5 melanoma
SNB-19 CNS = system: SNB-19 CNS
DU-145 prostate = system: DU-145 prostate
HOP-92 NSCLC = system: HOP-92 NSCLC
SF-268 CNS = system: SF-268 CNS
HCC-2998 colon = system: HCC-2998 colon
HL-60(TB) leukemia = system: HL-60(TB) leukemia
NCI-H226 lung = system: NCI-H226 lung
BT-549 breast = system: BT-549 breast
MDA-N = system: MDA-N
IGROV1 ovarian = system: IGROV1 ovarian
M14 melanoma = system: M14 melanoma
SF-539 CNS = system: SF-539 CNS
MDA-MB-435 = system: MDA-MB-435
SN12C renal = system: SN12C renal
HT29 colon = system: HT29 colon
NCI-H460 lung = system: NCI-H460 lung
NCI-H23 lung = system: NCI-H23 lung
NCI-H522 lung = system: NCI-H522 lung
COLO 205 colon = system: COLO 205 colon
U251 CNS = system: U251 CNS
UACC-257 melanoma = system: UACC-257 melanoma
RXF 393 renal = system: RXF 393 renal
MCF7 breast = system: MCF7 breast
SK-MEL-2 melanoma = system: SK-MEL-2 melanoma
A549 NSCLC = system: A549 NSCLC
MALME-3M melanoma = system: MALME-3M melanoma
UACC-62 melanoma = system: UACC-62 melanoma
SW-620 colon = system: SW-620 colon
OVCAR-3 ovarian = system: OVCAR-3 ovarian
K-562 leukemia = system: K-562 leukemia
OVCAR-8 ovarian = system: OVCAR-8 ovarian
CAKI-1 renal = system: CAKI-1 renal
NCI/ADR-RES ovarian = system: NCI/ADR-RES ovarian
A498 renal = system: A498 renal
HCT-116 colon = system: HCT-116 colon
MDA-MB-231 breast = system: MDA-MB-231 breast
ACHN renal = system: ACHN renal
OVCAR-4 ovarian = system: OVCAR-4 ovarian
CCRF-CEM leukemia = system: CCRF-CEM leukemia
PC-3 prostate = system: PC-3 prostate
KM12 colon = system: KM12 colon
SR leukemia = system: SR leukemia
T-47D breast = system: T-47D breast
UO-31 renal = system: UO-31 renal
MOLT-4 leukemia = system: MOLT-4 leukemia
HCT-15 colon = system: HCT-15 colon
SF-295 CNS = system: SF-295 CNS
EKVX NSCLC = system: EKVX NSCLC
HS 578T breast = system: HS 578T breast
TK-10 renal = system: TK-10 renal
LOX IMVI melanoma = system: LOX IMVI melanoma
HOP-62 NSCLC = system: HOP-62 NSCLC
OVCAR-5 ovarian = system: OVCAR-5 ovarian
SK-MEL-28 melanoma = system: SK-MEL-28 melanoma
RPMI-8226 leukemia = system: RPMI-8226 leukemia

## COc1ccc(-c2cc(-c3cc(OC)c(OC)c(OC)c3)cc(-c3cc4ccccc4oc3=O)n2)cc1
SK-OV-3 ovarian
  TGI: 14.5 µM
SNB-75 CNS
  TGI: 9.61 µM
786-0 renal
  TGI: 5.34 µM
SK-MEL-5 melanoma
  TGI: 18.6 µM
SNB-19 CNS
  TGI: 37.7 µM
DU-145 prostate
  TGI: 56.1 µM
HOP-92 NSCLC
  TGI: 16.8 µM
SF-268 CNS
  TGI: 16.7 µM
HCC-2998 colon
  TGI: 80.5 µM
HL-60(TB) leukemia
  TGI: > 100 µM
NCI-H226 lung
  TGI: 22.2 µM
BT-549 breast
  TGI: 27.8 µM
MDA-N
  TGI: 68 µM
IGROV1 ovarian
  TGI: 24.6 µM
M14 melanoma
  TGI: > 100 µM
SF-539 CNS
  TGI: 7.88 µM
MDA-MB-435
  TGI: > 100 µM
SN12C renal
  TGI: 49.7 µM
HT29 colon
  TGI: > 100 µM
NCI-H460 lung
  TGI: 17.8 µM
NCI-H23 lung
  TGI: 29.8 µM
NCI-H522 lung
  TGI: 34.5 µM
COLO 205 colon
  TGI: > 100 µM
U251 CNS
  TGI: 12.5 µM
UACC-257 melanoma
  TGI: 63.3 µM
RXF 393 renal
  TGI: 16.1 µM
MCF7 breast
  TGI: > 100 µM
SK-MEL-2 melanoma
  TGI: 62.2 µM
A549 NSCLC
  TGI: 60 µM
MALME-3M melanoma
  TGI: 23.9 µM
UACC-62 melanoma
  TGI: 33.6 µM
SW-620 colon
  TGI: > 100 µM
OVCAR-3 ovarian
  TGI: 68.3 µM
K-562 leukemia
  TGI: > 100 µM
OVCAR-8 ovarian
  TGI: 16.3 µM
CAKI-1 renal
  TGI: 17.3 µM
NCI/ADR-RES ovarian
  TGI: 31.6 µM
A498 renal
  TGI: 17.6 µM
HCT-116 colon
  TGI: 18.2 µM
MDA-MB-231 breast
  TGI: 8.07 µM
ACHN renal
  TGI: 16.3 µM
OVCAR-4 ovarian
  TGI: 21.4 µM
CCRF-CEM leukemia
  TGI: > 100 µM
PC-3 prostate
  TGI: 76.8 µM
KM12 colon
  TGI: > 100 µM
SR leukemia
  TGI: > 100 µM
T-47D breast
  TGI: 26 µM
UO-31 renal
  TGI: 24.7 µM
MOLT-4 leukemia
  TGI: > 100 µM
HCT-15 colon
  TGI: > 100 µM
SF-295 CNS
  TGI: 19.4 µM
EKVX NSCLC
  TGI: 31.5 µM
HS 578T breast
  TGI: 7.14 µM
TK-10 renal
  TGI: 21.1 µM
LOX IMVI melanoma
  TGI: > 100 µM
HOP-62 NSCLC
  TGI: 5.8 µM

## Brc1ccc2[nH]cc(-c3nc(-c4c[nH]c5ccccc45)cs3)c2c1
SK-OV-3 ovarian
  TGI: 21.4 µM
SNB-75 CNS
  TGI: 25.1 µM
786-0 renal
  TGI: 8.55 µM
SK-MEL-5 melanoma
  TGI: 4.01 µM
SNB-19 CNS
  TGI: 12.2 µM
DU-145 prostate
  TGI: 10.4 µM
HOP-92 NSCLC
  TGI: 7.86 µM
SF-268 CNS
  TGI: 11.4 µM
HCC-2998 colon
  TGI: 4.17 µM
HL-60(TB) leukemia
  TGI: 16.1 µM
NCI-H226 lung
  TGI: 8.13 µM
BT-549 breast
  TGI: 23.4 µM
MDA-N
  TGI: 9.35 µM
IGROV1 ovarian
  TGI: 8.75 µM
M14 melanoma
  TGI: 3.73 µM
SF-539 CNS
  TGI: 10.8 µM
MDA-MB-435
  TGI: 13.3 µM
SN12C renal
  TGI: 13.9 µM
HT29 colon
  TGI: 3.56 µM
NCI-H460 lung
  TGI: 4.9 µM
NCI-H23 lung
  TGI: 8.84 µM
NCI-H522 lung
  TGI: 3.73 µM
COLO 205 colon
  TGI: 2.76 µM
U251 CNS
  TGI: 8.38 µM
UACC-257 melanoma
  TGI: 15.4 µM
RXF 393 renal
  TGI: 16 µM
MCF7 breast
  TGI: > 100 µM
SK-MEL-2 melanoma
  TGI: 8.43 µM
A549 NSCLC
  TGI: 15.8 µM
MALME-3M melanoma
  TGI: 9.39 µM
UACC-62 melanoma
  TGI: 6.95 µM
SW-620 colon
  TGI: 13.3 µM
OVCAR-3 ovarian
  TGI: 15.5 µM
K-562 leukemia
  TGI: > 20.1 µM
OVCAR-5 ovarian
  TGI: 5.37 µM
OVCAR-8 ovarian
  TGI: 20.9 µM
CAKI-1 renal
  TGI: 8.2 µM
NCI/ADR-RES ovarian
  TGI: 11.2 µM
A498 renal
  TGI: 8.47 µM
HCT-116 colon
  TGI: 7.15 µM
MDA-MB-231 breast
  TGI: 7.68 µM
SK-MEL-28 melanoma
  TGI: 20.9 µM
ACHN renal
  TGI: 8.75 µM
OVCAR-4 ovarian
  TGI: 23.1 µM
CCRF-CEM leukemia
  TGI: > 26.2 µM
PC-3 prostate
  TGI: 9.55 µM
KM12 colon
  TGI: 5.1 µM
RPMI-8226 leukemia
  TGI: > 20.7 µM
SR leukemia
  TGI: > 100 µM
T-47D breast
  TGI: 31.7 µM
UO-31 renal
  TGI: 13.9 µM
HCT-15 colon
  TGI: 6.89 µM
SF-295 CNS
  TGI: 10.6 µM
EKVX NSCLC
  TGI: 12.3 µM
HS 578T breast
  TGI: > 47.9 µM
TK-10 renal
  TGI: 10.5 µM
LOX IMVI melanoma
  TGI: 4.68 µM
HOP-62 NSCLC
  TGI: 21.7 µM
